Test results from patent publication US20240369485A1, “FLUORESCENT SENSOR FOR MONITORING CALCIUM DYNAMICS” (priority 2021, published 2024).
Numbering of substitutions follows the chain as printed. Names may count otherwise. “Also recorded” adds a separate entry of the source. Values belong to the molecule of their own block, whether it stands above or below them.

Legend:
[1] = molecular target: T1, CaSR (wildtype) (Homo sapiens, UniProt P41180); test: Epifluorescence imaging of CaSR mediated ER Ca^2+ dynamics using R-CatchER and Fura-2 in HEK293 cells; assay type: cell-based; conditions: for effect on cytosolic and ER Ca^2+ oscillations: Tg 3 μM, 2-APB 100 μM, ionomycin 20 μM with 10 mM Ca^2+; for effect on frequency of ER Ca^2+ oscillations: in the presence of Ca^2+, HEK293 CaSR
T1 construct: expressed in transfected cells; host or cells: HEK293
T1 sequence (P41180 20-1078): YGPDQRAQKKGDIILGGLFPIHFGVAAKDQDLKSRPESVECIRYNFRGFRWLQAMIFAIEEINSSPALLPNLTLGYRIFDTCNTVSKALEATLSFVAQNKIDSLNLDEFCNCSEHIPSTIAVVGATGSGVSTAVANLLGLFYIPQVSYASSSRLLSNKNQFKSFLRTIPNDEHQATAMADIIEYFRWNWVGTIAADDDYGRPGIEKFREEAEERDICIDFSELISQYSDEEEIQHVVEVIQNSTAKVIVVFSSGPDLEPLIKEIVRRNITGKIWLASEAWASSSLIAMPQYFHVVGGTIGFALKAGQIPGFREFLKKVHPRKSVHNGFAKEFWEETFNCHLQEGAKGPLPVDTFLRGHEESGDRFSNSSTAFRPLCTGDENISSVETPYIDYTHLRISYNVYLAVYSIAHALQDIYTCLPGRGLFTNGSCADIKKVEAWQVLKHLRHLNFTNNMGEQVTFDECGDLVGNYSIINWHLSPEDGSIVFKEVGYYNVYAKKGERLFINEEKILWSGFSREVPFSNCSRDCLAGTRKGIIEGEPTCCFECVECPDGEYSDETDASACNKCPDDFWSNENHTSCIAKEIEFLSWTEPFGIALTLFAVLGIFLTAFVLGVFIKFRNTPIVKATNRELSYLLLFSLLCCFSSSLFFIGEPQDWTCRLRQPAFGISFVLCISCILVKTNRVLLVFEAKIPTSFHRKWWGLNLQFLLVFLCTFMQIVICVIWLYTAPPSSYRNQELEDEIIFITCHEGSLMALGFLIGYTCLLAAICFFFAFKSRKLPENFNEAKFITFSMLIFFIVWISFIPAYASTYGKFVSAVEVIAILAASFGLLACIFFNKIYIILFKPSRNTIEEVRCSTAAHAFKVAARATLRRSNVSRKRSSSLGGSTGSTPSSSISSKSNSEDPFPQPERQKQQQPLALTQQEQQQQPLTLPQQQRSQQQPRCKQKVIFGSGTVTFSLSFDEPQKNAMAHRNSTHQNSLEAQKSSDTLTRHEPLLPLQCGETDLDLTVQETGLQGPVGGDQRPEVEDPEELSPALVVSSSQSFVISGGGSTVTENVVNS
Description: (§1) Cell culture and transfection. C2C12, HEK293 and HeLa cells were cultured and maintained in Dulbecco's modified Eagle's medium (DMEM) supplemented with 10% fetal bovine serum (FBS) and high glucose (4.5 g/L) at 37° C. R-CatchER, G-CatchER2, G-CEPIA1er, R-CEPIA1er or R-CatchER with GFP-CaSR (wt and mutations) were transfected into cells using Lipofectamine 3000 (Life Technologies), following the manufacturer's instructions. Seed cells onto sterilized 22 mm×40 mm glass microscope slides in 6 cm dishes until about 70% confluency, the day of transfection. The next day, 2 μg of plasmid were mixed with transfection reagent in the reduced serum media Opti-MEM for 4-6 h at 37° C. The media was then replaced with 3 mL of fresh DMEM and incubated at 37° C. for 48 h.
(§2) Epifluorescence imaging of class C GPCR mediated ER Ca^2+ dynamics using R-CatchER and Fura-2. HEK293 Cells transfected with R-CatchER and GFP-CaSR (wt and mutations) were incubated with Fura-2 for 30 mins at 37° C. then washed with 2 mL of physiological Ringer buffer (10 mM HEPES, 140 mM NaCl, 5 mM KCl, 1.2 mM MgCl2, 1.8 mM CaCl2) at pH 7.4). The coverslips were mounted on a bath chamber and placed on the stage of a Leica DM6100B inverted microscope with a Hamamatsu cooled EM-CCD camera and illuminated with a Till Polychrome V Xenon lamp. Cells were illuminated at 340 nm, 380 nm and 569 nm, in real-time, as cells were exposed to different concentrations of Ca^2+, cinacalcet, Phe, TNCA, or NPS2143.

[2] = molecular target: T2, CaSR E297K (Homo sapiens, UniProt P41180, E297K); test: Epifluorescence imaging of CaSR mediated ER Ca^2+ dynamics using R-CatchER, E297K mutant; assay type: cell-based; conditions: E297K mutant with TNCA (500 μM)
T2 construct: expressed in transfected cells; host or cells: HEK293
T2 sequence (P41180 20-1078 E297K): T1 sequence (P41180 20-1078) with E278K
Description: as §1
as §2, with “Cells were illuminated at 340 nm, 380 nm and 569 nm, in real-time, as cells were exposed to different concentrations of Ca^2+, cinacalcet, Phe, TNCA, or NPS2143.” left out

[3] = Calcium (Ca^2+) binding assay: fluorescence/absorbance titration of purified protein; conditions: mCherry based indicators, Ca^2+ induced fluorescence change
Description: Calcium (Ca^2+) binding assay. 10 μM protein samples of mApple, EGFP, and mCherry variants were titrated with different concentrations of Ca^2+. Data were fitted with a 1:1 binding equation. Fluorescence intensities were collected using a Spectrofluorimeter (Photon Technology International, Inc.) and the absorbance values of Ca^2+-free and Ca^2+-loaded forms were determined using a Shimadzu UV-1601 spectrophotome.
Ca^2+ binding assay. Fluorescence measurements of mApple variants with increasing Ca^2+ concentrations were done in order to obtain the affinity of the sensor for Ca^2+ in vitro. Samples of 10 μM mApple variants with 5 μM EGTA were prepared in triplicate in 1 mL volumes in 10 mM Tris, pH 7.4. The samples were placed in quartz fluorescence cuvettes, and metal ion was titrated into each sample, in a stepwise manner, using 0.1 M and 1 M metal stock solutions. The fluorescence response of the indicator to increasing Ca^2+ concentrations was monitored using a fluorescence spectrophotometer (Photon Technology International, Canada) with the Felix32 fluorescence analysis software. The absorbance spectra before and after titration were obtained using a Shimadzu UV-1601 spectrophotometer.

[4] = pKa determination of the chromophore; assay type: physicochemical
Description: pKa determination. To measure the chromophore pKa of mApple, EGFP, and mCherry variants, the proteins were prepared in buffers (sodium acetate buffer for pH 3-5, MES buffer for pH 5-6, HEPES buffer for pH 6.5-8, TRIS buffer for pH 8.5-9) covering a pH range from 3 to 10. All samples were Incubated at 4° C. overnight, then the following day, the absorbance and fluorescence spectra were collected using a Shimadzu UV-1601 spectrophotometer and the Spectrofluorimeter.

[5] = In vitro kinetics by stopped flow spectrofluorometer; assay type: binding; conditions: stopped-flow, dead time 2.2 ms, 20° C.
Description: In vitro kinetics by stopped flow spectrofluorometer. The kinetics were determined by a Hi-Tech SF-61 stopped-flow spectrofluorometer equipped with the mercury-Xe lamp (10 mm path length, dead time of 2.2 ms) at 20° C. For R-CatchER and its variant or R-CEPIA1er, excitation was at 569 nm and a long-pass 590 nm filter was used. For G-CEPIA1er, a 530 nm long-pass filter was set with excitation at 498 nm, while for MCD1, excitation at 587 nm and a long-pass 600 nm filter were applied. For association kinetics, R-CatchER, R-CatchER variant, MCD1, R-CEPIA1er, and G-CEPIA1er were mixed with the same buffer containing an increasing concentration of Ca^2+. For disassociation kinetics, R-CatchER, R-CatchER variant, MCD1, R-CEPIA1er, and G-CEPIA1er in buffers with concentration of Ca^2+ at Kd, were mixed with 5 mM EGTA or buffer. The raw data were fitted using either single exponential for R-CatchER, R-CatchER variant, and MCD1, or double exponential equations for R-CEPIA1er and G-CEPIA1er.

Ca^2+ release from the ER, area under the curve (AUC) ([1]; 5 mM L-Phe alone, R-CatchER): 19.54±1.08
effect on frequency of ER Ca^2+ oscillations ([1]; R-CatchER): increased the frequency
EC50 ([1]; in the presence of L-Phe, read out with R-CatchER, read-out: EC50 of ER Ca^2+ mobilization by extracellular Ca^2+): 2700 ± 100 µM
Molecule: N[C@@H](Cc1ccccc1)C(=O)O [L-Phe]

effect on frequency of ER Ca^2+ oscillations ([1]; R-CatchER): increased the frequency
Hill coefficient (cooperativity) [2]: 3.08±0.40
Molecule: O=C(O)[C@@H]1Cc2c([nH]c3ccccc23)CN1 [TNCA, L-1,2,3,4-tetrahydronorharman-3-carboxylic acid]

Fmax/Fmin [3]: 1.13 ± 0.01
B1: MCD1: mCherry A145E/S147E/N196D/K198D/R216E, best mCherry-based variant, SEQ ID NO: 32 (protein)
chain: EEDNMAIIKEFMRFKVHMEGSVNGHEFEIEGEGEGRPYEGTQTAKLKVTKGGPLPFAWDILSPQFMYGSKAYVKHPADIPDYLKLSFPEGFKWERVMNFEDGGVVTVTQDSSLQDGEFIYKVKLRGTNFPSDGPVMQKKTMGWEESEERMYPEDGALKGEIKQRLKLKDGGHYDAEVKTTYKAKKPVQLPGAYNVDIDLDITSHNEDYTIVEQYEEAEGRHSTGGMDELYK
apparent pKa ([4]; 0 mM Ca^2+): 4.31±0.01
apparent pKa ([4]; 10 mM Ca^2+): 4.30±0.01
Ca^2+ association rate kon [5]: ≥ 3e+07 M⁻¹ s⁻¹

Further lines, the molecule ahead of its results:

Molecule: NCCOB(c1ccccc1)c1ccccc1 [2-APB, 2-Aminoethoxydiphenyl borate]
effect on cytosolic and ER Ca^2+ oscillations [1]: eliminated; also recorded: elimination

Molecule: C[C@@H](NCCCc1cccc(C(F)(F)F)c1)c1cccc2ccccc12 [Cinacalcet]
effect on frequency of ER Ca^2+ oscillations ([1]; R-CatchER): increased the frequency

Molecule: CC(C)(Cc1ccc2ccccc2c1)NC[C@@H](O)COc1cccc(Cl)c1C#N [NPS2143]
effect on frequency of ER Ca^2+ oscillations ([1]; R-CatchER): decreased the frequency

Molecule: C/C=C(/C)C(=O)O[C@H]1C(C)=C2[C@H]([C@@H]1OC(=O)CCCCCCC)[C@@](C)(OC(C)=O)C[C@H](OC(=O)CCC)[C@@]1(O)[C@H]2OC(=O)[C@@]1(C)O [Tg, Thapsigargin]
effect on cytosolic and ER Ca^2+ oscillations [1]: eliminated; also recorded: elimination

Molecule: C[C@H](CCC(=O)O)C[C@H](C)C[C@H](C)C(=O)/C=C(\O)[C@H](C)C[C@H](C)C/C=C/[C@@H](C)[C@@H](O)[C@@H](C)[C@@H](O)C[C@@H]1CC[C@@](C)([C@H]2CC[C@@](C)([C@@H](C)O)O2)O1 [ionomycin]
effect on cytosolic and ER Ca^2+ oscillations [1]: eliminated; also recorded: abolished
